According to patent US20250134874A1, “PHARMACEUTICAL FORMULATIONS COMPRISING 3-({[(4R)-7-{METHYL[4-(PROPAN-2-YL)PHENYL]AMINO}-3,4-DIHYDRO-2H-1-BENZOPYRAN-4-YL]METHYL}AMINO)PYRIDINE-4-CARBOXYLIC ACID” (TACHYON THERAPEUTICS, INC., priority 2021, published 2025):

System: 301 cancer cell lines from different tumor types (OncoPanel; HD Biosciences)
Assay: 2D cell viability inhibition assay (CellTiter-Glo) in cancer cell line panel
Type: cell-based
Parameters: key to AUC: AUC as fraction of the no-inhibition area (dose range × 0–100 % of control)
Details: for Emax: in %
Protocol: In a larger screening study, compound 1 was evaluated across a broad cancer cell line panel (OncoPanel; HD Biosciences) composed of 301 cancer cell lines from different tumor types.
2D cell viability inhibition assays were performed in multiwell plates seeded with cells from the panel. After seeding, the plates were cultured overnight in a humidified incubator at 37° C. to promote adherence. Assays were initiated in individual wells by adding either DMSO as a vehicle control, growth media as a blank, or serially diluted compound 1 (10 μM to 0.0005 μM with 1:3 serial dilution). Cultures were incubated for 168 hours after which the number of viable cells in each test well was assessed using the CellTiter-Glo® Luminescent Cell Viability Assay. Luminescence readouts were performed using an EnVision® Multilabel Reader and the compound 1 readouts were normalized to the DMSO control readouts, expressed as a percent of the control. Outliers were flagged out by visual inspection. Percent of control was plotted against the corresponding compound 1 concentration and the absolute IC50 value was determined using four-parameter logistic non-linear regression as the concentration where inhibition was 50% of the control. For maximum inhibition <50%, the absolute IC50 was reported as >10. In addition to EC50 and IC50, AUC was determined and was normalized to the area corresponding to theoretical no-inhibition (the rectangular area defined by the compound dose range and 0 to 100 in y). Emax was recorded as the minimum in y with the compound dose range. For those cell lines where Emax>40, EC50 was manually set to 10 μM. A hierarchical clustering algorithm based on Euclidean distance between the standardized input values and “Ward.D” method as implemented in R hclust function was used to visualize the compound 1 cellular potency data. The sensitive/moderate/resistant calls for each cell line was determined by visually inspecting the resulting clustering dendrogram. All the analyses were done in R Core Team.

CC(C)c1ccc(N(C)c2ccc3c(c2)OCC[C@H]3CNc2cnccc2C(=O)O)cc1 [Compound 1, 3-({[(4R)-7-{methyl[4-(propan-2-yl)phenyl]amino}-3,4-dihydro-2H-1-benzopyran-4-yl]methyl}amino)pyridine-4-carboxylic acid]
AUC (NCIH23 cell line): 0.6227 | AUC (NCIH69 cell line): 0.2802 | Emax (NCIH69 cell line): 1.271 | AUC (NCIH82 cell line): 0.2502 | AUC (NCIH209 cell line): 0.1869 | Emax (NCIH209 cell line): 8.61 | AUC (NCIH358 cell line): 0.4332 | Emax (NCIH358 cell line): 22.66 | AUC (NCIH441, lung, adenocarcinoma, 168 hours): 0.7804 | AUC (NCIH446 cell line): 0.5837 | AUC (NCIH460 cell line): 0.3714 | Emax (NCIH460 cell line): 7.705 | AUC (NCIH508 cell line): 0.3378 | Emax (NCIH508 cell line): 3.207 | AUC (NCIH520 cell line): 0.3237 | AUC (NCIH522 cell line): 0.4447 | Emax (NCIH522 cell line): 15.14 | AUC (NCIH524 cell line): 0.3617 | Emax (NCIH524 cell line): 12.7766 | AUC (NCIH596, lung, mixed adenosquamous carcinoma, 168 hours): 0.8151 | AUC (NCIH647 cell line): 0.4942 | Emax (NCIH647 cell line): 28.29 | AUC (NCIH661 cell line): 0.3608 | Emax (NCIH661 cell line): 9.075 | AUC (NCIH716 cell line): 0.3799 | Emax (NCIH716 cell line): 12.75 | AUC (NCIH929 cell line): 0.5285 | AUC (NCIH1048 cell line): 0.1479 | AUC (NCIH1092 cell line): 0.479 | Emax (NCIH1092 cell line): 26.4 | AUC (NCIH1155 cell line): 0.07571 | AUC (NCIH1299 cell line): 0.3508 | Emax (NCIH1299 cell line): 12.65 | AUC (NCIH1355 cell line): 0.5594 | AUC (NCIH1395, lung, adenocarcinoma, 168 hours): 0.8542 | AUC (NCIH1435, lung, non-small cell carcinoma, 168 hours): 0.7612 | AUC (NCIH1436 cell line): 0.4953 | Emax (NCIH1436 cell line): 34.4 | AUC (NCIH1437 cell line): 0.4082 | Emax (NCIH1437 cell line): 14.97 | AUC (NCIH1563, lung, adenocarcinoma, 168 hours): 0.9652 | AUC (NCIH1573, lung, adenocarcinoma, 168 hours): 0.7482 | AUC (NCIH1618 cell line): 0.02266 | EC50 (NCIH1618 cell line): 0.000508 µM | IC50 (NCIH1618 cell line): < 0.0005 µM | AUC (NCIH1623 cell line): 0.522 | AUC (NCIH1650, lung, bronchioloalveolar adenocarcinoma, 168 hours): 0.8746 | AUC (NCIH1666 cell line): 0.2983 | AUC (NCIH1694 cell line): 0.3214 | Emax (NCIH1694 cell line): 21.59 | AUC (NCIH1703 cell line): 0.4204 | Emax (NCIH1703 cell line): 21.7324 | AUC (NCIH1734 cell line): 0.6734 | AUC (NCIH1755, lung, adenocarcinoma, 168 hours): 1.29 | AUC (NCIH1793 cell line): 0.4916 | Emax (NCIH1793 cell line): 27.48 | AUC (NCIH1836 cell line): 0.3332 | AUC (NCIH1838, lung, non-small cell carcinoma, 168 hours): 0.7858 | AUC (NCIH1930 cell line): 0.5402 | AUC (NCIH1944 cell line): 0.5809 | Emax (NCIH1944 cell line): 37.59 | AUC (NCIH1975 cell line): 0.529 | AUC (NCIH2009, lung, adenocarcinoma, 168 hours): 0.7914 | AUC (NCIH2023 cell line): 0.2884 | AUC (NCIH2081 cell line): 0.3049 | AUC (NCIH2087 cell line): 0.3822 | AUC (NCIH2122 cell line): 0.5019 | AUC (NCIH2171 cell line): 0.7416 | AUC (NCIH2172 cell line): 0.6812 | AUC (NCIH2228 cell line): 0.6864 | AUC (NCIH2286 cell line): 0.2917 | AUC (NCIH2291 cell line): 0.3822 | Emax (NCIH2291 cell line): 13.48 | AUC (NCIH2347 cell line): 0.5778 | Emax (NCIH2347 cell line): 40.29 | AUC (NCIN87 cell line): 0.3132 | AUC (NIHOVCAR3, ovary, NS, 168 hours): 0.7771 | AUC (NMCG1, central nervous system, NS, 168 hours): 0.7013 | AUC (NOMO1 cell line): 0.3293 | AUC (NUGC3 cell line): 0.3824 | Emax (NUGC3 cell line): 16 | AUC (NUGC4 cell line): 0.4642 | Emax (NUGC4 cell line): 24.53 | EC50 (OCUM1, OCUM1 cell line): ≥ 10 µM | IC50 (OCUM1, OCUM1 cell line): 0.00779 µM | AUC (OCUM1 cell line): 0.5324 | Emax (OCUM1 cell line): 32.42 | AUC (ONS76, central nervous system, NS, 168 hours): 0.7336 | AUC (OSRC2 cell line): 0.6658 | AUC (OVISE cell line): 0.5405 | IC50 (OVISE cell line): 0.024 µM | AUC (P31FUJ cell line): 0.286 | AUC (PANC1 cell line): 0.5543 | AUC (PANC0213 cell line): 0.5829 | EC50 (PANC0213 cell line): 0.0215 µM | IC50 (PANC0213 cell line): 0.0358 µM | AUC (PC3 cell line): 0.502 | Emax (PC3 cell line): 26.1466 | AUC (PECAPJ34CLONEC12 cell line): 0.311 | EC50 (PECAPJ34CLONEC12 cell line): 0.00381 µM | IC50 (PECAPJ34CLONEC12 cell line): 0.00397 µM | AUC (PF382 cell line): 0.2761 | AUC (PLCPRF5 cell line): 0.5107 | AUC (RCM1 cell line): 0.6711 | AUC (RD cell line): 0.4703 | Emax (RD cell line): 27.42 | AUC (REH cell line): 0.0957 | AUC (RERFLCMS cell line): 0.6415 | EC50 (RERFLCMS cell line): 0.0235 µM | IC50 (RERFLCMS cell line): 0.0659 µM | AUC (RKO cell line): 0.3827 | Emax (RKO cell line): 11.05 | AUC (RL cell line): 0.2366
